Test results taken from patent publication US20060148858A1, “1, 2-Azole derivatives with hypoglycemic and hypolipidemic activity” (priority 2002, published 2006).
Like-named read-outs stand apart in the source and are kept apart here.

Experiments:
[1] = target: T1, PPARγ-RXRα heterodimer (Homo sapiens, UniProt P37231); assay: PPARγ-RXRα heterodimer ligand activity, luciferase reporter in PPARγ:RXRα:4ERPP/CHO-K1 cells (Test Example 3); type: cell-based; details: 18-48 hours, concentration for 50% of the maximum fold induction
T1 construct: expressed in transfected cells; host or cells: CHO-K1
T1 sequence (P37231 1-477 isoform P37231-2): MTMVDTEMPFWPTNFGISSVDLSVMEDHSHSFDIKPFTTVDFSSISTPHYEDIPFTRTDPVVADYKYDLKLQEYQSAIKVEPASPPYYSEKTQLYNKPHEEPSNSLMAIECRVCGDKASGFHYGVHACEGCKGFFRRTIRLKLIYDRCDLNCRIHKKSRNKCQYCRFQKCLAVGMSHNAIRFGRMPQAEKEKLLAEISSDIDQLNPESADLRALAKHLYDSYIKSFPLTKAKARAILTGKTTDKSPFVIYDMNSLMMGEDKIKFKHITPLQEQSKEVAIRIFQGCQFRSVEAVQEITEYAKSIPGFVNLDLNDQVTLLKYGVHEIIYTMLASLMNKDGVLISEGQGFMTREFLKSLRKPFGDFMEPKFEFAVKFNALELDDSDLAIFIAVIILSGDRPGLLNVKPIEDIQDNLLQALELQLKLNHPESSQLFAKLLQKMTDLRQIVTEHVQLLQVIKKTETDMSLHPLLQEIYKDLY
T1 sequence (P19793 1-462 partner): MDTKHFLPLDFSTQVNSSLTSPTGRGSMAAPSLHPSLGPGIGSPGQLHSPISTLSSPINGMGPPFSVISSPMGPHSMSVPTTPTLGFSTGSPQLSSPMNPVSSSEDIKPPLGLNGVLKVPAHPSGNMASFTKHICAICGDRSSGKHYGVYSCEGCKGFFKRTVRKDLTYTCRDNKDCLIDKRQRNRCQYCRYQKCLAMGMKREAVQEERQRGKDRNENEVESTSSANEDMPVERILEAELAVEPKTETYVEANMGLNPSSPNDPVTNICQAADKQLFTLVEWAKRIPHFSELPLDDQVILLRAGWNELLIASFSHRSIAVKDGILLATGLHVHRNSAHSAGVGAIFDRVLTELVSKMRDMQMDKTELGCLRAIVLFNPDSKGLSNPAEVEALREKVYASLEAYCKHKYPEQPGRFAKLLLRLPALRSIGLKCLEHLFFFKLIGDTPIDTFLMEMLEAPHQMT
Protocol: A PPARγ: RXRα: 4ERPP/CHO-K1 cells obtained in Reference Example 8a described later were cultured in HAM F12 medium (produced by Life Technologies, Inc., USA) containing 10% Fetal bovine serum (produced by Life Technologies, Inc., USA) and then inoculated to a 96-well white plate (produced by Corning Costar Corporation, USA) at the density of 2×10^4 cells/well, and cultured in a CO2 gas incubator at 37° C. overnight.
After removing the medium from 96 well white plate, 80 μl of HAM F12 medium containing 0.1% fatty acid-free bovine serum albumin (BSA) and 20 μl of test compound were added, which was cultured in a CO2 gas incubator at 37° C. for 18-48 hours. After removing the medium, 40 μl of PIKKAGENE 7.5 (produced by Wako Pure Chemical Industries, Ltd.) diluted twice with HBSS (HANKS' BALANCED SALT SOLUTION)(produced by BIO WHITTAKER Inc., USA), was added. After stirring, the luciferase activity was determined using 1420 ARVO Multilabel Counter (produced by PerkinElmer Inc., USA).
A fold induction was calculated based on the luciferase activity of each test compound by taking the luciferase activity in the non-treatment group as 1. The values of the test compound concentration and the fold induction were analyzed using PRISM (produced by GraphPad Software Inc. USA) to calculate the EC50 values, the effective concentration of a test compound for 50% of the maximum fold induction.
After a CHO-K1 cell cultured in a 150 cm^2 cell culture flask (750 ml)(produced by Corning Costar Corporation, USA) containing HAM F12 medium (produced by Life Technologies, Inc., USA) supplemented with 10% Fetal Bovine Serum (produced by Life Technologies, Inc., USA) was scraped by treating with 0.5 g/L trypsin-0.2 g/L EDTA (ethylenediaminetetraacetic acid) (produced by Life Technologies, Inc., USA), the cell was washed with PBS (phosphate-buffered saline) (produced by Life Technologies, Inc., USA), centrifuged (1000 rpm, 5 minutes), and then suspended in PBS. Subsequently, a DNA was introduced into the cell under the condition shown below using GENE PULSER (produced by Bio-Rad Laboratories, USA).
Namely, to a cuvette having a 0.4 cm gap, added were 8×10^6 cells and 10 μg of plasmid pVgRXR2-hPPARγ obtained in Reference Example 7a and 10 μg of reporter plasmid pGL3-4ERPP-TK neo obtained in Reference Example 5a, which was subjected to electroporation at the voltage of 0.25 kV under the capacitance of 960 μF. Subsequently, the cell was transferred into a HAM F12 medium containing 10% Fetal Bovine Serum and cultured for 24 hours and then the cell was scraped again and centrifuged, and then suspended in HAM F12 medium containing 10% Fetal Bovine Serum supplemented with 500 μg/ml of GENETICIN (produced by Life Technologies, Inc., USA) and 250 μg/ml of ZEOCIN (produced by Invitrogen, USA). The obtained suspension was diluted to the density of 10^4 cells/ml and inoculated to a 96-well plate (produced by Corning Costar Corporation, USA), which was cultured in a CO2 gas incubator at 37° C., whereby obtaining a GENETICIN- and ZEOCIN-resistant transformant.
Subsequently, after the transformant cell line thus obtained was cultured in a 24-well plate (produced by Corning Costar Corporation, USA), selected was a cell line in which the luciferase was expressed and induced, i.e., PPARγ:RXRα:4ERPP/CHO-K1 cell by addition of 10 μM of pioglitazone hydrochloride.

[2] = system: KKAY mice; assay: Hypoglycemic and hypolipidemic actions in mice (Test Example 1); type: in vivo; details: Mus musculus, po, 96 h, 0.005% in powdery diet, four days, non-treated group taken as 100%
Protocol: Test compounds were mixed in a powdery diet (CE-2, Japan Clea) at the concentration of 0.005%, and freely given to KKAY mice (9 to 12 weeks old, 5 mice in a group), a model of obese and non-insulin dependent diabetes (type 2 diabetes), for four days. During this period, water was given freely. Blood was sampled from orbital venous plexus, and glucose and triglyceride levels in plasma separated from blood were determined enzymatically using L type Wako Glu2 (Wako Pure Chemical Industries, Ltd.) or L type Wako TG·H (Wako Pure Chemical Industries, Ltd.), respectively.
In the table, “hypoglycemic action (%)” means the rate of decrease (%) in the blood glucose level of the treated group when the blood glucose level of the non-treated group is taken as 100%. In addition, the “hypolipidemic action (%)” means the rate of decrease (%) in the blood triglyceride level of the treated group when the blood triglyceride level of the non-treated group is taken as 100%.

[3] = rate of decrease in blood glucose level, read-out: Hypoglycemic action (%)
[4] = rate of decrease in blood triglyceride level, read-out: Hypolipidemic action (%)

SMILES	EC50 [1]	melting point	inhibition in vivo at 0.005 % in diet [2, 3]	inhibition in vivo at 0.005 % in diet [2, 4]
CCCCc1nn(-c2ccc(C(F)(F)F)cn2)cc1CCCOc1c(CC(=O)O)cccc1OC [Example 197, [2-(3-{3-butyl-1-[5-(trifluoromethyl)-2-pyridyl]-1H-pyrazol-4-yl}propoxy)-3-methoxyphenyl]acetic acid]	22 nM	121 to 122 °C	45%	65%
COc1cccc(CC(=O)O)c1OCCCc1cn(-c2ccc(Br)cn2)nc1C(C)C [Example 218, (2-{3-[1-(5-bromo-2-pyridyl)-3-isopropyl-1H-pyrazol-4-yl]propoxy}-3-methoxyphenyl)acetic acid]	51 nM	152 to 153 °C	34%	43%
CCCc1nn(-c2ccc(C(F)(F)F)cn2)cc1CCCOc1c(CC)cccc1CC(=O)O [Example 229, [3-ethyl-2-(3-{3-propyl-1-[5-(trifluoromethyl)-2-pyridinyl]-1H-pyrazol-4-yl}propoxy)phenyl]acetic acid]	21 nM	146 to 147 °C	41%	49%
CC(C)c1nn(-c2ccc(C(F)(F)F)cn2)cc1CCCOc1c(Br)cccc1CC(=O)O [Example 235, [3-bromo-2-(3-{3-isopropyl-1-[5-(trifluoromethyl)-2-pyridinyl]-1H-pyrazol-4-yl}propoxy)phenyl]acetic acid]	26 nM	146 to 147 °C	43%	64%
CC(C)c1nn(-c2ccc(C(F)(F)F)cn2)cc1CCCOc1c(Cl)cccc1CC(=O)O [Example 239, [3-chloro-2-(3-{3-isopropyl-1-[5-(trifluoromethyl)-2-pyridinyl]-1H-pyrazol-4-yl}propoxy)phenyl]acetic acid]	35 nM	141 to 142 °C	42%	65%
COc1cccc(CC(=O)O)c1OCCCc1cn(-c2ccc(C)cn2)nc1C(C)C [Example 272, (3-methoxy-2-{3-[3-isopropyl-1-(5-methyl-2-pyridyl)-1H-pyrazol-4-yl]propoxy}phenyl)acetic acid]	50 nM	132 to 133 °C	48%	69%

Now those with a lower EC50 [1], led by results:

EC50 [1]	melting point	SMILES	inhibition in vivo at 0.005 % in diet [2, 3]	inhibition in vivo at 0.005 % in diet [2, 4]
18 nM	102 to 103 °C	CCC(CC)c1nn(-c2ccc(C(F)(F)F)cn2)cc1CCCOc1c(F)cccc1CC(=O)O [Example 214, [2-(3-{3-(1-ethylpropyl)-1-[5-(trifluoromethyl)-2-pyridyl]-1H-pyrazol-4-yl}propoxy)-3-fluorophenyl]acetic acid]	44%	52%
20 nM	65 to 66 °C	CCC(CC)c1nn(-c2ccc(C(F)(F)F)cn2)cc1CCCOc1ccccc1CC(=O)O [Example 215, [2-(3-{3-(1-ethylpropyl)-1-[5-(trifluoromethyl)-2-pyridyl]-1H-pyrazol-4-yl}propoxy)phenyl]acetic acid]	50%	45%
18 nM	117 to 118 °C	CCC(C)c1nn(-c2ccc(C(F)(F)F)cn2)cc1CCCOc1c(CC(=O)O)cccc1OC (centres unmarked) [Example 216, [3-methoxy-2-(3-{3-(1-methylpropyl)-1-[5-(trifluoromethyl)-2-pyridyl]-1H-pyrazol-4-yl}propoxy)phenyl]acetic acid]	46%	61%
9.6 nM	107 to 108 °C	CCCC(C)c1nn(-c2ccc(C(F)(F)F)cn2)cc1CCCOc1c(CC(=O)O)cccc1OC (centres unmarked) [Example 220, [3-methoxy-2-(3-{3-(1-methylbutyl)-1-[5-(trifluoromethyl)-2-pyridyl]-1H-pyrazol-4-yl}propoxy)phenyl]acetic acid]	44%	50%
12 nM	83 to 84 °C	CCOc1cccc(CC(=O)O)c1OCCCc1cn(-c2ccc(C(F)(F)F)cn2)nc1C(CC)CC [Example 221, [3-ethoxy-2-(3-{3-(1-ethylpropyl)-1-[5-(trifluoromethyl)-2-pyridyl]-1H-pyrazol-4-yl}propoxy)phenyl]acetic acid]	46%	21%
